# According to patent US7632814B2, “HYD1 peptides as anti-cancer agents” (University of South Florida, priority 2006, dated 2009):
# Where no end group is shown, it is not given here. [ ]: non-standard residue; d: D form.
# How the values were obtained:
# caspase 3 = assay: Caspase 3 activity in H929 cells (fluorescent substrate); type: cell-based; conditions: 6 and 24 hrs, relative to treatment with melphalan
# Protocol: Cells were treated for 6 hours (FIG. 21A) or 24 hours (FIG. 21B) and caspase 3 activity was measured using a fluorescent substrate. Shown is a representative experiment performed in triplicate. The experiment was repeated twice and similar results were obtained.
# (§1) Detection of Apoptosis. A flow cytometric assay measuring Annexin V/PI staining was used to measure apoptotic cells following 24 hours of peptide exposure as previously described (Damiano J S et al. Blood, 1999; 93:1658-1667). The assay was performed in triplicate and 3 independent experiments were performed. Caspase 3 and 8 activity was measured at 6 and 24 hrs post peptide treatment per manufactures' instructions (BD Biosciences, San Jose, Calif.). The caspase assays were performed in triplicate and repeated twice.
# caspase 8 = assay: Caspase 8 activity in H929 cells (fluorescent substrate); type: cell-based; conditions: 6 or 24 hrs
# Protocol: Cells were treated for 6 hours (FIG. 22A) or 24 hours (FIG. 22B) and caspase 8 activity was measured using a fluorescent substrate. Shown is a representative experiment performed in triplicates. The experiment was repeated twice and similar results were obtained.
# as §1
# 8226 cells = assay: HS-5 co-culture (SF+A) model of drug resistance, melphalan apoptosis; type: cell-based
# Protocol: (§2) Co-culture model. HS-5/GFP cells were plated at a density of 500,000 cells per ml and incubated overnight. Myeloma cells were incubated with vehicle control (water), 50 μg/ml HYD1 or 50 μg/ml HYD1S 30 minutes prior to the addition of myeloma cells (400,000 cell/ml) to either control plates or plates containing HS-5 cells. Myeloma cells were incubated with HS-5 cells for three hours prior to the addition of melphalan. Apoptotic cells were measured in GFP negative myeloma cells, by annexin PE staining and FACS analysis (n=9). ANOVO was performed to determine significance between conditions.
# (§3) Briefly, 8226 myeloma cells were pre-incubated with varying concentrations of either HYD1 or the scrambled HYD1S peptide for 30 minutes prior to allowing cells to attach to FN for two hours. Following two hours of cell adhesion, the amount of cells adherent to FN was measured. The next objective was to determine whether treatment of tumor cells with HYD1 results in potentiation of melphalan induced cell death in the BMS co-culture model (SF+A). […] For these studies, the HYD1 and HYD1S were pre-incubated with the […] for 30 minutes, and then cells and culture media containing the peptide were placed into the S-5 culture dish. Myeloma cells were co-cultured for an additional 3 hours with HS-5 cells before the addition of melphalan. Twenty-four hours after drug treatment, apoptosis was measured by Annexin V-PE positive events by FACS analysis. The HS-5 cells constitutively express GFP and thus it is possible to gate GFP negative cells only (myeloma cells) for the apoptotic analysis.
# H929 cells = assay: as above; type: cell-based
# Protocol: as §2, §3
# ERK = assay: Activation of ERK signaling; type: cell-based
# Protocol: HYD1, when introduced as a soluble ligand, completely blocks random hapotaxis on laminin 322 and enhanced cellular signals are coupled with the loss of cell motility. […] Using this endpoint as an indicator of HYD1 bioactivity, the truncated and alanine-substituted variants of HYD1 were tested for their ability to activate ERK. Activation of ERK at 10 minutes post-treatment was conserved with alanine-substitution only at the N-terminal lysine and C-terminal glycine (FIG. 16A-1). […] Taken together (FIG. 16C-2), the results (FIGS. 16A-1, 16A-2, 16B, 16C-1) indicate that activation of ERK signaling required ikmviswxx (SEQ ID NO:48).
# β1 integrin = target: T1, β1 integrin (Homo sapiens, UniProt P05556); assay: Binding of peptide to the cell surface
# T1 construct: endogenous in cells
# Source text: Another aspect of the invention concerns a method of identifying modulators of peptide binding (a screen for molecules that displace peptide binding). Agents that are identified as being capable of competing with the HYD1 peptides of the invention for binding to β1 integrin may have utility as cytotoxic agents for research or therapy (e.g., for cancer treatment). The method comprising providing a candidate agent (such as a chemical compound, antibody, nucleic acid, or peptide); and determining whether the agent inhibits (e.g., disrupts, prevents, or interferes with), the ability of a HYD1 peptide of the invention (HYD1 or a fragment or variant thereof) to bind to β1 integrin on a cell surface (e.g., cancer cell surface) and/or inhibit β1 integrin mediated adhesion, in vitro or in vivo (e.g., in an animal model). Preferably, the cell is a cancer cell such as a myeloma cell or a cell of other cancer types (see, for example Table 1). Preferably, the peptide is labeled with a detectable moiety (e.g., a fluorescent tag, such as […]) to facilitate the determining step. Examples of controls that may be utilized in carrying out the screening method include, but are not limited to, unlabeled HYD1 peptides (HYD1, or a fragment or variant thereof); scrambled peptides (such as HYD1S); β1 integrin blocking antibody; and non-specific surface antigen binding antibody (such as CD138 for myeloma cells). Advantageously, using the screening assay, labeled HYD1 or fragments or variants thereof, can be used to screen candidates such as small molecules, on natural product libraries, in a rapid, high-throughput fashion. […] Fluorescence polarization (FP) analysis can be used to screen small molecule or natural product libraries for discovery of novel compounds that mimic the specific binding and potentially the biological activity of HYD1. The FP assay is based on the extent of depolarization of the free versus bond peptide, which can be accurately measured on commercially available FP plate readers. […] In summary, a high throughput screen (HTS) can be used to bind small molecules prior to the addition of an HYD1 probe and molecules of interest can be identified by displacement of bond peptide, with a corresponding increase in unbound peptide by FP analysis. An analogous high-throughput binding assay based on fluorescence polarization, which allows screening for small molecules that bind to the STAT3 SH2 domain, is described in Schust J. and Berg T., Anal Biochem., 2004 Jul. 1; 330(1):114-8. […]
# [1] = test system: DUH-H prostate carcinoma cells; conditions: DeRoock et al. 2001; cited from earlier work
# T1 sequence (P05556 21-798): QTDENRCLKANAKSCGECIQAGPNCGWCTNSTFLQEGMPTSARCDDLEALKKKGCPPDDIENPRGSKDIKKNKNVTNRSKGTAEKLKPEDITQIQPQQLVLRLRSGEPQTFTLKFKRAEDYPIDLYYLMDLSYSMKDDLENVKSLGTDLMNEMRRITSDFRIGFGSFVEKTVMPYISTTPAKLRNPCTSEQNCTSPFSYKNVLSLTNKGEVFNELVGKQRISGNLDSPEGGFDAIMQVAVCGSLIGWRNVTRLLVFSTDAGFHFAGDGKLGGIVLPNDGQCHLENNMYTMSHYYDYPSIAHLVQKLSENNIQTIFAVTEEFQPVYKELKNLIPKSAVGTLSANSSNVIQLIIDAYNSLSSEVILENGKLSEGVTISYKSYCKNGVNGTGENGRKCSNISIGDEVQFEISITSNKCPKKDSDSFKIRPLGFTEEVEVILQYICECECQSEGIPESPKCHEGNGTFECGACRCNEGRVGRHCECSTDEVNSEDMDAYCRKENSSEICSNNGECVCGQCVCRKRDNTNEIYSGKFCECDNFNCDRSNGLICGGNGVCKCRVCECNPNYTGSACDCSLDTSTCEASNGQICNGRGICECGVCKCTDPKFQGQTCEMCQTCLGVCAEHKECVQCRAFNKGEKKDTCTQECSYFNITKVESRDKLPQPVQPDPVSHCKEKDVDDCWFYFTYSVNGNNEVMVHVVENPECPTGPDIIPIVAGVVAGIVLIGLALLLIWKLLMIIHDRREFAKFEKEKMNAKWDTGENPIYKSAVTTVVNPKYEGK
substance,measurement,setting,value
kikmviswkg ([dK][dI][dK][dM][dV][dI][dS][dW][dK]G) [HYD1],caspase 3 activity,caspase 3,minimal caspase 3 activity
same,caspase 8 activity,caspase 8,no caspase 8 activity was detected
same,resistance to melphalan associated with the bone marrow stroma model,8226 cells; 8226 cells,completely reversed resistance
same,potentiation of melphalan-induced apoptosis in the SF+A model,"8226 cells; 8226 cells co-cultured with HS-5, 50 μg/ml peptide, with melphalan",potentiates melphalan-induced apoptosis
same,resistance to melphalan associated with HS-5 co-culture,H929 cells; H929 cells,reduced resistance
same,potentiation of melphalan-induced apoptosis in the SF+A model,"H929 cells; H929 cells co-cultured with HS-5, 50 μg/ml peptide, with melphalan",potentiates melphalan-induced apoptosis
same,time of maximal activation of ERK post-treatment,ERK,10 min
same,activation of ERK,ERK; 10 minutes post-treatment,induces activation of ERK
same,binding to the cell surface,β1 integrin,bind to the cell surface
same,blocking of cell surface binding by β1 integrin antibody,β1 integrin,is blocked
same,"inhibition of adhesion to FN, laminin 1, laminin 5 and collagen V",[1],inhibit adhesion
